Key:
NLRP3 inflammasome = molecular target: T1, NLRP3 inflammasome (Mus musculus, UniProt Q8R4B8); assay: IL-1β secretion (ELISA) in LPS-primed iBMDMs stimulated with silica or nigericin; type: cell-based, murine; details: LPS 100 ng/mL primed iBMDMs; silica 250 μg/mL or nigericin 6 μM; compound 300, 150, 30, 3 μM
T1 construct: Immortalized wild-type C57BL/6 bone-marrow derived macrophages (iBMDMs); endogenous in cells; host or cells: immortalized wild-type C57BL/6 bone-marrow derived macrophages (iBMDMs), LPS-primed
Method: In vitro stimulation of murine macrophages. Immortalized wild-type C57BL/6 bone-marrow derived macrophages (iBMDMs) were grown in DMEM supplemented with 10% heat inactivated FBS and 2 mM glutamine. iBMDMs were seeded in 96-well plates 24 hours prior incubation with lipopolysaccharide (LPS; 100 ng/mL) for 3 hours. Cells were then incubated with a control probenecid compound (probenecid dissolved in DMSO (Prob/D), probenecid dissolved in PBS (Prob/P)) or one of the probenecid analogs of the present technology (BT032, BT132, BT133, BT134, BT135, BT136, BT137, BT138, BT139, or BT140) at concentrations of 300 μM, 150 μM, 30 μM, or 3 μM 1 hour prior to stimulation with NLRP3 inflammasome activators, silica (250 μg/mL) or nigericin (6 μM). After an additional 6 hours, cell supernatants were collected and levels of IL-1β were quantified by ELISA. These experiments were run in triplicate three times.

[1] = tested on: ASC specks (NLRP3 inflammasome complex); assay: Nigericin-induced ASC speck formation in ASC-cerulean/NLRP3 macrophages; type: cell-based; details: 350 μM, 60 mins before nigericin 3 μM for 90 mins
NLRP1 [2] = molecular target: T2, NLRP1 (Homo sapiens, UniProt Q9C000); assay: poly I:C NLRP1 activation in primary human bronchial epithelial cells, secreted IL-1β ELISA; type: cell-based; details: 20, 100, 350 μM
T2 construct: Primary bronchial epithelial cells (PBEC) were obtained from bronchial brushings; endogenous in cells; host or cells: primary human bronchial epithelial cells (PBEC) from bronchial brushings
T2 sequence (Q9C000 1-1212 limits assumed): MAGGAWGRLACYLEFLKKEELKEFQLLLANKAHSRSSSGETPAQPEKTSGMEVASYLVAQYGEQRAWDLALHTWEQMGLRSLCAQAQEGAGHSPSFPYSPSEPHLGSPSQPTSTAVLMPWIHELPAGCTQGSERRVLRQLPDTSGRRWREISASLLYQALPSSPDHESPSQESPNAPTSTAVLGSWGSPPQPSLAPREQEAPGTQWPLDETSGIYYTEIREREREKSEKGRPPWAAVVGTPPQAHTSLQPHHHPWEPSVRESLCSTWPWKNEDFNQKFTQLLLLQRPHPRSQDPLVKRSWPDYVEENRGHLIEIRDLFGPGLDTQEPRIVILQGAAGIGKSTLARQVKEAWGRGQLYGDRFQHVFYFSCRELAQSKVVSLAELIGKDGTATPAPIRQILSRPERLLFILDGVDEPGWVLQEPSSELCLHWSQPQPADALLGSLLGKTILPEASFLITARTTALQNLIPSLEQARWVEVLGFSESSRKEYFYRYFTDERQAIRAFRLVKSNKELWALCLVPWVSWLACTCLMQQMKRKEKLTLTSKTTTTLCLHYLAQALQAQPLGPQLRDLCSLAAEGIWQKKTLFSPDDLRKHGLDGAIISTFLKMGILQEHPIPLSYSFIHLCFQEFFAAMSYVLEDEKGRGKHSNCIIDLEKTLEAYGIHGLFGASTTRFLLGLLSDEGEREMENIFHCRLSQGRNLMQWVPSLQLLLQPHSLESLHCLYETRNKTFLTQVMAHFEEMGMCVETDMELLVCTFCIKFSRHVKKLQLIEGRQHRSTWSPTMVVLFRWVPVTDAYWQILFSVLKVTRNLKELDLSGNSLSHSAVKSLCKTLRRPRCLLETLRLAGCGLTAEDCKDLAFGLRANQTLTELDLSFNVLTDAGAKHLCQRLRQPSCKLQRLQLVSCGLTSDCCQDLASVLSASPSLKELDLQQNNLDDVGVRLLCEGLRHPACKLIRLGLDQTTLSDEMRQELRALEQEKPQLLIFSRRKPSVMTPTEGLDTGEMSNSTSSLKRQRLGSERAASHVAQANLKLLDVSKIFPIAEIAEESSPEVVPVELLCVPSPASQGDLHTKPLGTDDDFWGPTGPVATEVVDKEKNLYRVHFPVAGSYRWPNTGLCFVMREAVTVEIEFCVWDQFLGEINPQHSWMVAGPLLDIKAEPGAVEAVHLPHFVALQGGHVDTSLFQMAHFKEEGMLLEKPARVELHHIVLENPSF
T2 sequence (Q9C000 1213-1473 limits assumed): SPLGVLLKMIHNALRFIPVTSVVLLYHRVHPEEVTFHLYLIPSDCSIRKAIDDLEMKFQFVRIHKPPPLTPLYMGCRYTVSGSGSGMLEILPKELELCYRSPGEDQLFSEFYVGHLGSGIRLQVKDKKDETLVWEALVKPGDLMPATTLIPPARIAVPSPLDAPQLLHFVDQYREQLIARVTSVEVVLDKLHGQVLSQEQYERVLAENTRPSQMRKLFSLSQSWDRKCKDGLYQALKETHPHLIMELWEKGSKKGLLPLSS
Method: Methods. Primary bronchial epithelial cells (PBEC) were obtained from bronchial brushings and cultured under submerged conditions on collagen-coated flasks in supplemented bronchial epithelial growth medium. PBECs were seeded at 2.5×10^5/ml cells in collagen-coated 96 well plates overnight.

NLRP1 [3] = assay: NLRP1-mediated inflammasome activity, secreted IL-1β ELISA in immortalized BMDMs (L18-MDP); type: cell-based, murine; details: for NLRP1 (L18-MDP)-induced inflammasome activation: BT032 20, 100 μM, MCC950 5 μM
AIM2 = molecular target: T3, AIM2 (Mus musculus, UniProt Q91VJ1); assay: AIM2 (poly dA:dT)-mediated inflammasome activation, secreted IL-1β ELISA in immortalized BMDMs; type: cell-based, murine; details: BT032 20, 100 μM
T3 sequence (Q91VJ1 1-354): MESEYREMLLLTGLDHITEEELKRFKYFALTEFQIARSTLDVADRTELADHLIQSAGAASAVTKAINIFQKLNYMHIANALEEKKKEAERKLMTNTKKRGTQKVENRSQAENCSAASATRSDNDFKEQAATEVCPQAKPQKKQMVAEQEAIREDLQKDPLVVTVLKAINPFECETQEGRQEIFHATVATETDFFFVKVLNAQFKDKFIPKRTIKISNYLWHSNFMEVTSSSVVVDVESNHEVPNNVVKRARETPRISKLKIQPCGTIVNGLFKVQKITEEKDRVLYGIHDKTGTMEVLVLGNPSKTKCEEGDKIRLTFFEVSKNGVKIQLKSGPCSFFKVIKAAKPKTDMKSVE

[4] = tested on: HKx31 (H3N2) influenza A virus; type: in vivo, C57BL/6 mice
NLRP3 = NLRP3 (Mus musculus, UniProt Q8R4B8); assay: NLRP3-mediated inflammasome activity, secreted IL-1β ELISA in LPS-primed immortalized BMDMs (nigericin, MSU, silica)
NLRC4 = NLRC4 (Mus musculus, UniProt Q3UP24); assay: NLRC4 (Flagellin)-mediated inflammasome activation, secreted IL-1β ELISA in immortalized BMDMs; type: cell-based, murine; details: BT032 20, 100 μM
NLRP1 [5] = assay: NLRP1 (L18-MDP)-induced inflammasome activation in immortalized BMDMs, secreted IL-1β ELISA (Example 10); type: cell-based; details: 20, 100, 350 μM; L18-MDP 100 μg/mL, 16 hours
[6] = tested on: non-canonical inflammasome; assay: Non-canonical inflammasome activity (LPS (B4)), secreted IL-1β ELISA in immortalized BMDMs; type: cell-based, murine; details: BT032 20, 100 μM

Sequence of NLRP3 (Q8R4B8 whole entry): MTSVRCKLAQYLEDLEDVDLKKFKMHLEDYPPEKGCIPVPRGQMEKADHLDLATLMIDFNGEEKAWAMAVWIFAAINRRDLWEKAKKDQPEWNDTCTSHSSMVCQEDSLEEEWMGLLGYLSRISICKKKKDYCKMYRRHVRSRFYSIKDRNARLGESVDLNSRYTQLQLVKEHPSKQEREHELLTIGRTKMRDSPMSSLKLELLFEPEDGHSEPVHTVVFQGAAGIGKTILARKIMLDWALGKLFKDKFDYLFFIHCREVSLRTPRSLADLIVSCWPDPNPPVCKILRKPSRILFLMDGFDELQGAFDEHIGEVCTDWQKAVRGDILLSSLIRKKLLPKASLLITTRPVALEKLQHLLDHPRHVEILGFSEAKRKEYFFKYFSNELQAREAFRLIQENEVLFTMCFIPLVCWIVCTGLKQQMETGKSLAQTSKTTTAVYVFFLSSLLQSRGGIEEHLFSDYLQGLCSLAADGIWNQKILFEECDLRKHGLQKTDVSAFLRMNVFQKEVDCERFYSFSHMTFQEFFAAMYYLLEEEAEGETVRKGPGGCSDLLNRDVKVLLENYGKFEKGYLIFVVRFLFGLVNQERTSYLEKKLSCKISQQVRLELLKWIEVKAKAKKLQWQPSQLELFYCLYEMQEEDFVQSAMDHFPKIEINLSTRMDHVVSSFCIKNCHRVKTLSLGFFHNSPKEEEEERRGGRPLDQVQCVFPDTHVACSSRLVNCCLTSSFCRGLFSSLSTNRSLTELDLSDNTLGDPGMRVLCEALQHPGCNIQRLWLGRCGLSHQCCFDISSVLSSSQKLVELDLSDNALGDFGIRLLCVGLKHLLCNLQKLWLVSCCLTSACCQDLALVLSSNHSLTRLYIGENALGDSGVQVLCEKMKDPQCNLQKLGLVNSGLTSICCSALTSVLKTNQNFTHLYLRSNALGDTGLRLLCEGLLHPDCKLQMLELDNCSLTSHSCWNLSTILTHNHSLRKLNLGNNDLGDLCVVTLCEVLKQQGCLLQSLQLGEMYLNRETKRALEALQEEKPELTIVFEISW
T1 sequence (Q8R4B8 whole entry): as above
Sequence of NLRC4 (Q3UP24 whole entry): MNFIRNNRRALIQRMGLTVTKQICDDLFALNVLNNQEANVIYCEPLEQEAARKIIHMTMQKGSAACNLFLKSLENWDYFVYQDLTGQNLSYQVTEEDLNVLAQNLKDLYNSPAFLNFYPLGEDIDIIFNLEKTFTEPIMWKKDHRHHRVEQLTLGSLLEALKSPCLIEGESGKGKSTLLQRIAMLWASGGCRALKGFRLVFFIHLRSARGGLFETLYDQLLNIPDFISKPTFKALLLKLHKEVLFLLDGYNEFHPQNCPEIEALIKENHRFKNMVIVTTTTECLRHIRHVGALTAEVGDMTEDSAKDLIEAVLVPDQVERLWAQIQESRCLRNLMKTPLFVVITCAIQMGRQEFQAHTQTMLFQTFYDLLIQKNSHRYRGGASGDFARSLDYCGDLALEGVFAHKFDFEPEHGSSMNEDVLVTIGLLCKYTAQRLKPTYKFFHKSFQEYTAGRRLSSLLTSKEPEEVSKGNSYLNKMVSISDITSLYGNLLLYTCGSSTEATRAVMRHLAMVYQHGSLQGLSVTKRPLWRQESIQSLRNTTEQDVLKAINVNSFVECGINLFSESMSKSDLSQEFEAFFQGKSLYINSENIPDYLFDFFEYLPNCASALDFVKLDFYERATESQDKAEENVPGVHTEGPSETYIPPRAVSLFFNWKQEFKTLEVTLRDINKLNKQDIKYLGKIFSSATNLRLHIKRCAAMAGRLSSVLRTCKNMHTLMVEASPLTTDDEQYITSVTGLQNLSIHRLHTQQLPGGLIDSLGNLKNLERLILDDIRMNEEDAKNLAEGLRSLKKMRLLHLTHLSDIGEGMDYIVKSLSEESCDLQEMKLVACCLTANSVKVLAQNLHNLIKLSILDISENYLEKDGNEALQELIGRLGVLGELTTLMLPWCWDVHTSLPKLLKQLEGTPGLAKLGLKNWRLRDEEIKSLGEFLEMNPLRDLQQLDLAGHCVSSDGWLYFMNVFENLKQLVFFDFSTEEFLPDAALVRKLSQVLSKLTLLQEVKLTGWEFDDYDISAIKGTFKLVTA

SMILES: CCCN(CCC)S(=O)(=O)c1ccc(-c2ccc(CCCC(=O)O)cc2)cc1 [BT032, 4-(4′-(N,N-dipropylsulfamoyl)-[1,1′-biphenyl]-4-yl)butanoic acid]
- potency in reducing IL-1β secretion compared with control probenecid compounds (NLRP3 inflammasome): more potent than the control probenecid compounds
- ASC specks in cells [1]: substantially reduced ASC specks
- poly I:C NLRP1 activation (IL-1β secretion) (NLRP1 [2]): inhibited poly I:C NLRP1 activation
- NLRP1 (L18-MDP)-induced inflammasome activation (NLRP1 [3]): dose-dependently inhibited
- IC50 (NLRP1 [3]; L18-MDP 100 μg/mL, drug 3.9-350 μM, read-out: IC50, inhibition of NLRP1-mediated inflammasome activity): 30 µM
- AIM2 (poly dA:dT)-mediated inflammasome activation (AIM2): no effect
- survival of mice ([4]; […], survival without treatment 5 days): 7-9 days post-infection
- pulmonary inflammation and cellular infiltrates in BAL (total cells, alveolar macrophages, neutrophils, Ly6C+ macrophages, dendritic cells, MCP-1) ([4]; mouse, in vivo): reduce hyperinflammation in the airways
- IC50 (NLRP3): 30 µM
- NLRP3 (Nigericin, MSU, Silica)-induced inflammasome activation (NLRP3; BT032 20, 100 μM, MCC950 5 μM, secreted IL-1β): dose-dependently inhibited
- NLRC4 (Flagellin)-mediated inflammasome activation (NLRC4): no effect
- NLRP1 (L18-MDP)-induced inflammasome activation (secreted IL-1β) (NLRP1 [5]): dose-dependently inhibited
- non-canonical inflammasome activity (LPS (B4)) [6]: limited impact

SMILES: CCCN(CCC)S(=O)(=O)c1ccc(N2CCC(CCCC(=O)O)CC2)cc1 [BT135, 4-(1-(4-(N,N-dipropylsulfamoyl)-phenyl)piperidin-4-yl)butanoic acid]
- NLRP1 (L18-MDP)-induced inflammasome activation (secreted IL-1β) (NLRP1 [5]): dose-dependently inhibited

SMILES: CCCN(CCC)S(=O)(=O)c1ccc(-c2nc(CCCC(=O)O)cs2)cc1 [BT136, 4-(2-(4-(N,N-dipropylsulfamoyl)phenyl)thiazol-4-yl)butanoic acid]
- potency in reducing IL-1β secretion compared with control probenecid compounds (NLRP3 inflammasome): more potent than the control probenecid compounds
- NLRP1 (L18-MDP)-induced inflammasome activation (secreted IL-1β) (NLRP1 [5]): dose-dependently inhibited

SMILES: CC(C)(O)c1coc(S(=O)(=O)NC(=O)Nc2c3c(cc4c2CCC4)CCC3)c1 [MCC950, reference compound]
- NLRP1 (L18-MDP)-induced inflammasome activation (NLRP1 [3]): no impact upon NLRP1 activity

From patent publication US12577211B2, “Probenecid compounds for the treatment of inflammasome-mediated lung disease” (Bacainn Biotherapeutics, Ltd., priority 2020, dated 2026)
